pKi: −log10 of the molar value. Where two headings read alike, the source gives them in different places. Where a SMILES comes first, the peptide text is derived from it. [ ]: non-standard residue; d: D form. The star is where a group is joined. ξ: configuration not given here. ξV = CC(C)C(N)C(=O)O; CF3 = FC(F)(F)*; Moc = COC(=O)*
What was measured:
[1] = molecular target: T1, human neutrophil elastase (HNE) (Homo sapiens, UniProt P08246); test: Acute Hemorrhagic Assay (HNE-induced lung hemorrhage in hamsters); format: in vivo, Male Syrian hamsters; conditions: hamster, 50 μg/animal HNE intratracheal, 4 h, read-out: ED50 (inhibition of HNE-induced hemorrhage)
T1 sequence (P08246 30-267): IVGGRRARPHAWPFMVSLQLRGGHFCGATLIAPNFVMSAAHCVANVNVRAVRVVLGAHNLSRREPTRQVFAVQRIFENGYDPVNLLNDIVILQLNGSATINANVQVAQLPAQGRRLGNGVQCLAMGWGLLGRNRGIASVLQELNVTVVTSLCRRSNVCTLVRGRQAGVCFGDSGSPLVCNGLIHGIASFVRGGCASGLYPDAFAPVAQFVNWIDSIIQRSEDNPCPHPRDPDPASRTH
Procedure: This assay relies on monitoring only the amount of hemorrhage in the lung following intratracheal administration of human neutrophil elastase (HNE). Hemorrhage is quantified by disrupting erythrocytes recovered in lung lavage fluid and comparing that to dilutions of whole hamster blood. […] Male Syrian hamsters (fasted for 16-18 hours prior to use) are lightly anaesthetised with Brevital sodium (30 mg/kg i.p.). […] Four hours after enzyme administration, the animals are killed with an overdose of pentobarbital sodium, the thorax opened and the lungs and heart removed and the lungs cleared of extraneous material. The excised lungs are lavaged with three changes of 2 ml PBS via a tracheal cannula. The recovered lavages are pooled, the volumes (about 5 mL) are recorded and the lavages stored at 4 ° C. until assayed. For calculation of the amount of blood in each sample, the thawed lavages and a sample of whole hamster blood are sonicated to disrupt erythrocytes and appropriately diluted into individual wells of a 96-well microtiter plate. The optical densities (OD) of the disrupted lavages and blood samples are determined at 540 nm. The (μL blood equivalents) / (mL lavage) are determined by comparing the OD of the test samples with the OD of the standard curve prepared from whole hamster blood. The total μL equivalents of blood recovered is determined by multiplying recovered lavage volume by the (μL blood equivalents) / (mL lavage) for each sample.

[2] = molecular target: T2, human leukocyte elastase (HLE) (Homo sapiens, UniProt P08246); test: Inhibition of human leukocyte elastase (HLE) on low molecular weight peptide substrate methoxy-succinyl-alanyl-alanyl-prolyl-valine-p-nitroanilide; format: biochemical; conditions: kinetic determination, read-out: Ki (dissociation constant of the complex formed from the interaction of the inhibitor with HLE)
T2 sequence (P08246 30-267): T1 sequence (P08246 30-267)
Procedure: The potency of the compound of the invention (or a particular form thereof) to act as an inhibitor of human leukocyte elastase (HLE) on the low molecular weight peptide substrate methoxy-succinyl-alanyl-alanyl-prolyl-valine-p-nitroanilide is determined as described in U.S. Pat. No. 4,910,190. The potency of the compound is evaluated by obtaining a kinetic determination of the dissociation constant, Ki, of the complex formed from the interaction of the inhibitor with HLE.

[3] = Bioavailability; format: in vivo; conditions: crystalline hydrated forms
[4] = Hygroscopicity; format: physicochemical
[5] = Solubility in aqueous buffer; format: physicochemical; conditions: crystalline hydrated forms

With COC(=O)N[C@H](C(=O)N1CCC[C@H]1C(=O)NC(C(=O)C(F)(F)F)C(C)C)C(C)C (stereo partly drawn) [Example 1, (S)-1-[(S)-2-(methoxycarbonylamino)-3-methylbutyryl]-N-[2-methyl-1-(2,2,2-trifluoroacetyl)propyl]pyrrolidine-2-carboxamide] (Moc-Val-Pro-[ξV]-CF3) the ED50 ([1]; oral dosing) was 4.5 mg/kg and the pKi [2] was 7.44.
For COC(=O)N[C@H](C(=O)N1CCC[C@H]1C(=O)N[C@H](C(=O)C(F)(F)F)C(C)C)C(C)C [Example 2, (S)-1-[(S)-2-(methoxycarbonylamino)-3-methylbutyryl]-N-[(S)-2-methyl-1-(2,2,2-trifluoroacetyl)propyl]-pyrrolidine-2-carboxamide] (HELM PEPTIDE1{[COC(=O)[*:2]].V.P.V.[FC(F)(F)[*:1]]}$$$$V2.0), the bioavailability [3] was “good bioavailability”, the hygroscopicity ([4]; listed as Form A) was “non-hygroscopic” and the “solubility in aqueous buffer” value [5] was “good solubility in aqueous buffer”. It also gave an ED50 ([1]; iv, i.v. administration) of 0.6 mg/kg, an ED50 ([1]; oral dosing) of 1.9 mg/kg and a pKi [2] of 8.05.
With COC(=O)N[C@H](C(=O)N1CCC[C@H]1C(=O)N[C@H](C(=O)C(F)(F)F)C(C)C)C(C)C [Example 8] (HELM PEPTIDE1{[COC(=O)[*:2]].V.P.V.[FC(F)(F)[*:1]]}$$$$V2.0) the hygroscopicity ([4]; listed as Form B) was “non-hygroscopic”.
For COC(=O)N[C@H](C(=O)N1CCC[C@H]1C(=O)N[C@H](C(=O)C(F)(F)F)C(C)C)C(C)C [Example 10] (HELM PEPTIDE1{[COC(=O)[*:2]].V.P.V.[FC(F)(F)[*:1]]}$$$$V2.0), the hygroscopicity ([4]; listed as "ketone" form) was “hygroscopic”.

Source: patent US5686628A, “Proline derivatives” (Zeneca Ltd., priority 1995, dated 1997)
